{
  "source": "paper PMC3547732",
  "about": "(Chemistry Central Journal, 2012)",
  "key": {"[1]": {"test_system": "Triton induced hyperlipidemia", "assay": "Hypolipidemic activity in Triton induced hyperlipidemia in rats", "type": "in vivo, male Wistar rats", "settings": "for lipid lowering in triton treated rats (total cholesterol and TG), in words: 30 mg/kg oral gavage; for Total Cholesterol / Triglyceride: Triton treated rats, 30 mg/kg oral gavage 2 h before Triton i.p., plasma 18 h after triton injection", "protocol": "The rats were housed under optimal laboratory conditions, maintained on 12 h light and dark cycle and had free access to food (Hindustan Lever Products, Kolkata, India) and water. Animals were acclimatized to laboratory conditions before the tests. All experiments were carried out between 0900 and 1700 h. The experimental protocols were approved by the Institutional Animal Ethics Committee and conducted according to the Indian National Science Academy guidelines for the use and care of animals. Fifty five male Wistar rats were divided into the following 11 groups containing 5 animals in each group: Atrovastain and various solvates were freshly suspended in 0.5% carboxymethyl cellulose and administered by oral gavage. Two hours later, all groups except control animals received intraperitonial injection of Triton (100 mg/kg). Eighteen hours after triton injection, blood was collected from tail vein. Plasma was separated and stored at −20°C for further biochemical analysis. Total cholesterol and triglyceride were analyzed in plasma samples using diagnostic kits as per manufacturer instructions."}, "[2]": {"assay": "Enthalpy of solution by microreaction calorimetry", "type": "physicochemical", "settings": "for Enthalpy of solvation ΔsolvH: calculated by equation 3 from enthalpies of solution of drug and solvate in the solvent of solvation; for Molar enthalpy of solution in its own solvent, Solvates (ΔsolH^2): each solvate in its own solvent of solvation; for Molar enthalpy of solution in its own solvent, Solvates (ΔsolH^2) / Molar enthalpy of solution, Methanol ΔsolH (methanol): 25°C", "protocol": "Molar enthalpy of solution (ΔHsol) was determined in phosphate buffer (pH8) as well as in methanol.\nIn order to determine the enthalpy associated with the solvation process the enthalpy of solution of a particular solvate was determined in its own solvent.\n(3) ΔsolyH=ΔsolH^1−ΔsolH^2\nCalorimetric studies were performed on Microreaction calorimeter obtained from Thermal Hazards Technology, UK. Two different solvents, viz, the phosphate buffer (pH 2) and methanol were used to determine the enthalpy of solution and the measurements were performed at 25°C. The size of sample used in this study ranged from 10 to 20 mg and was weighed (Sartorius Model CP225D) into a cylindrical glass tube covered with parafilm on one side. This cylindrical tube was submerged into the ampoule containing the solvent. A plunger with a cap was put from the open end of the tube. The same solvent was put into the reference ampoule. These were put into the sample and reference holes until both rest on the base of the holes. The apparatus was maintained at constant temperature at 25°C (±0.0005°C). The parafilm was shattered mechanically by means of plunger."}, "[3]": {"assay": "Desolvation of solvates by DSC and TGA", "type": "physicochemical", "settings": "for Desolvation temperature: DSC desolvation endotherm maximum, 10°C/min; for Enthalpy of desolvation, ΔdesolvH calculated from equation 4: calculated from enthalpies of solution, heat capacities and enthalpy of vapourization; for Enthalpy of desolvation per mole of solvent (binding energy): equation 1 from DSC desolvation enthalpy and TGA mass loss", "source_text": "The desolvation temperatures account for the stability of solvates as the desolvation temperature in all these forms is much higher than the boiling point of the corresponding solvent. The quantitative estimate of the stability of these solvates is established by determining the binding energy for the solvents in all the solvates using equation 1 where the percent mass loss measured over the TG desolvation step of each solvate (ΔmS%) was related to the enthalpy change calculated over the corresponding DSC desolvation endotherm (ΔHSexp).\n(1) ΔHS=ΔHSexp×100Δms%×Ms\nwhere ΔHS (J mol^-1) is the enthalpy of desolvation (or binding energy) per mole of the bound solvent, MS is the molecular mass of the solvent.\n(4) ΔdesolyH=ΔsolnH^2−ΔsolnH^1−ΔCPTdesoly−25+1/2ΔyapH\n. A mass between 2–8 mg was taken into the aluminium pan, covered with lid and sealed. DSC curves were obtained under a nitrogen purge of 50 mL per minute at a heating rate of 10°C per minute with the temperature range from 50-350°C.\nLoss of solvent from the samples was characterized by TGA obtained by TA Instruments-Waters LLC, USA. TGA traces were recorded at heating rates of 10°C per minute under a nitrogen purge of 50 ml per minute. Samples with masses between 1–10 mg were analyzed using platinum pan. Mass loss (%) was calculated based on the mass of the original sample."}, "[4]": {"assay": "Enthalpy of solution by microreaction calorimetry", "type": "physicochemical", "settings": "25°C"}},
  "data": [
    {"smiles": "CC(C)O.CC(C)c1c(C(=O)Nc2ccccc2)c(-c2ccccc2)c(-c2ccc(F)cc2)n1CC[C@@H](O)C[C@@H](O)CC(=O)[O-].CC(C)c1c(C(=O)Nc2ccccc2)c(-c2ccccc2)c(-c2ccc(F)cc2)n1CC[C@@H](O)C[C@@H](O)CC(=O)[O-].CC(C)c1c(C(=O)Nc2ccccc2)c(-c2ccccc2)c(-c2ccc(F)cc2)n1CC[C@@H](O)C[C@@H](O)CC(=O)[O-].CC(C)c1c(C(=O)Nc2ccccc2)c(-c2ccccc2)c(-c2ccc(F)cc2)n1CC[C@@H](O)C[C@@H](O)CC(=O)[O-].[Ca+2].[Ca+2]", "note": "[Solvate I]", "values": [
      {"measurement": "lipid lowering in triton treated rats (total cholesterol and TG), in words", "setting": "[1]", "value": "performed better than pure ATC"},
      {"measurement": "Total Cholesterol", "setting": "[1]", "value": 161, "unit": "mg/dL"},
      {"measurement": "Triglyceride", "setting": "[1]", "value": 143, "unit": "mg/dL"},
      {"measurement": "Enthalpy of solvation ΔsolvH", "setting": "[2]", "value": -2.612, "unit": "kcal/mol"},
      {"measurement": "Molar enthalpy of solution in its own solvent, Solvates (ΔsolH^2)", "setting": "[2]", "value": -5.844, "unit": "kcal/mol"},
      {"measurement": "Molar enthalpy of solution, Methanol ΔsolH (methanol)", "setting": "[2]", "value": 0.275, "unit": "kcal/mol"},
      {"measurement": "Desolvation temperature", "setting": "[3]", "value": 84.71, "unit": "°C"},
      {"measurement": "Enthalpy of desolvation, ΔdesolvH calculated from equation 4", "setting": "[3]", "value": 6.197, "unit": "kcal/mol"},
      {"measurement": "Enthalpy of desolvation per mole of solvent (binding energy)", "setting": "[3]", "value": 33.798, "unit": "kcal/mol"},
      {"measurement": "Enthalpy of desolvation, ΔdesolvH from DSC", "setting": "[3]", "value": 5.784, "unit": "kcal/mol"},
      {"measurement": "Molar enthalpy of solution, Phosphate buffer (pH8) ΔsolH", "setting": "[4]", "value": 2.51, "unit": "kJ mol^-1"}
    ]},
    {"smiles": "CC(C)c1c(C(=O)Nc2ccccc2)c(-c2ccccc2)c(-c2ccc(F)cc2)n1CC[C@@H](O)C[C@@H](O)CC(=O)[O-].CC(C)c1c(C(=O)Nc2ccccc2)c(-c2ccccc2)c(-c2ccc(F)cc2)n1CC[C@@H](O)C[C@@H](O)CC(=O)[O-].CCCCO.[Ca+2]", "note": "[Solvate VIII]", "values": [
      {"measurement": "lipid lowering in triton treated rats (total cholesterol and TG), in words", "setting": "[1]", "value": "performed better than pure ATC"},
      {"measurement": "Total Cholesterol", "setting": "[1]", "value": 152, "unit": "mg/dL"},
      {"measurement": "Triglyceride", "setting": "[1]", "value": 140, "unit": "mg/dL"},
      {"measurement": "Enthalpy of solvation ΔsolvH", "setting": "[2]", "value": -4.293, "unit": "kcal/mol"},
      {"measurement": "Molar enthalpy of solution in its own solvent, Solvates (ΔsolH^2)", "setting": "[2]", "value": -1.1, "unit": "kcal/mol"},
      {"measurement": "Molar enthalpy of solution, Methanol ΔsolH (methanol)", "setting": "[2]", "value": 0.136, "unit": "kcal/mol"},
      {"measurement": "Desolvation temperature", "setting": "[3]", "value": "119. 5 °C"},
      {"measurement": "Enthalpy of desolvation, ΔdesolvH calculated from equation 4", "setting": "[3]", "value": 7.603, "unit": "kcal/mol"},
      {"measurement": "Enthalpy of desolvation per mole of solvent (binding energy)", "setting": "[3]", "value": 14.69, "unit": "kcal/mol"},
      {"measurement": "Enthalpy of desolvation, ΔdesolvH from DSC", "setting": "[3]", "value": 6.826, "unit": "kcal/mol"},
      {"measurement": "Molar enthalpy of solution, Phosphate buffer (pH8) ΔsolH", "setting": "[4]; listed as Solvate- VIII", "value": 1.17, "unit": "kJ mol^-1"},
      {"measurement": "Molar enthalpy of solution, Phosphate buffer (pH8) ΔsolH", "setting": "[4]; listed as solvate-VIII", "value": 2.475, "unit": "kJ mol^-1"}
    ]}
  ]
}
